The target in this experiment is T1, acetylcholinesterase from electrophorus electricus (Electrophorus electricus, UniProt O42275).
T1 construct: purchased Sigma–Aldrich (St. Louis, MO, USA)
The experiment is described as follows: biochemical. The following applies: read-out: AChE inhibitory activity, IC50 Values (converted). How it is done:
All solvents were HPLC grade, purchased from Merck (Darmstadt, Germany). […] Sodium monobasic […] were purchased from Merck (Darmstadt, Germany), and acetylcholinesterase from electrophorus electricus, 5,5′-Dithiobis (2-nitrobenzoic acid), and […] were obtained from Sigma–Aldrich (St. Louis, MO, USA).
The AChE inhibitory activity was evaluated using Ellman’s method, as reported previously. Each sample (20 µL of 5 mg/mL in DMSO) was dispensed in triplicate into a 96-well microplate and mixed with 190 µL of DTNB, 20 µL of substrate (ATCI). The control wells contained 2% of DMSO instead of the extract. The enzymatic activity was measured at 412 nm every 30 s intervals for 3 min. The buffer solution was used as negative control.
The percentage inhibition (%I) of each sample and the positive control (physostigmine) was calculated using the formula:%I: [(Ac − As)/(Ac)] × 100(1) where (%I): Percentage inhibition • Ac: Absorbance of negative control • As: Absorbance of sample
The experiments were expressed as the mean ± standard error of the mean (SEM) in triplicates.

[1] abbreviates: Ellman's method, 412 nm, mean ± SEM, triplicates.

Experimental findings from paper PMC7436049, “Combining In Silico and In Vitro Studies to Evaluate the Acetylcholinesterase Inhibitory Profile of Different Accessions and the Biomarker Triterpenes of Centella asiatica” (Molecules, 2020) are described below.

One may read the IC50 as the concentration that inhibits the measured activity by half.

Where two headings read alike, the source gives them in different places.

T1 sequence (O42275 24-633): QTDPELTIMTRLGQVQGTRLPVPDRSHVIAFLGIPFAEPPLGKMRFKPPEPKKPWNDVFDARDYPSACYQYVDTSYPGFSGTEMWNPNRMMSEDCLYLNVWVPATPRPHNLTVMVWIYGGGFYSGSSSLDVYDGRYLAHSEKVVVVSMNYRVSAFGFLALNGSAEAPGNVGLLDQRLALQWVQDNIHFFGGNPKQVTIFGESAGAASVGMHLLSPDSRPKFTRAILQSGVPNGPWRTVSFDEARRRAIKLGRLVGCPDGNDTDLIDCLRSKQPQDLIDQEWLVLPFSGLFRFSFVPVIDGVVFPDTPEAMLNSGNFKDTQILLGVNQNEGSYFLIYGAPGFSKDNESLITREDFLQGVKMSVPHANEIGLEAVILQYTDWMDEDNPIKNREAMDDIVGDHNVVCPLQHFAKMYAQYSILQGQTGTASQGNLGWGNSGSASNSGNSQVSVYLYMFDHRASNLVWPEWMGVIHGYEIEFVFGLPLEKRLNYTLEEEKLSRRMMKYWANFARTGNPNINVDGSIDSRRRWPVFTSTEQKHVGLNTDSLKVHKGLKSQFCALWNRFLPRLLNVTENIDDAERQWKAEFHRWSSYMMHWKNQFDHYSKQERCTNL

In the case of `C[C@H]1[C@H](C)CC[C@]2(C(=O)O)CC[C@]3(C)C(=CC[C@@H]4[C@@]5(C)C[C@@H](O)[C@H](O)[C@@](C)(CO)[C@@H]5CC[C@]43C)[C@H]12` [Asiatic acid, asiatic acid], the IC50 under setting [1] was 30.8 µM. Turning to `C[C@H]1[C@H](C)CC[C@]2(C(=O)O)CC[C@]3(C)C(=CC[C@@H]4[C@@]5(C)C[C@@H](O)[C@H](O)[C@@](C)(CO)[C@@H]5[C@H](O)C[C@]43C)[C@H]12` [Madecassic acid, madecassic acid], the IC50 under setting [1] was 35.3 µM.

As for `C[C@H]1[C@H](C)CC[C@]2(C(=O)O[C@@H]3O[C@H](CO[C@@H]4O[C@H](CO)[C@@H](O[C@@H]5O[C@@H](C)[C@H](O)[C@@H](O)[C@H]5O)[C@H](O)[C@H]4O)[C@@H](O)[C@H](O)[C@H]3O)CC[C@]3(C)C(=CC[C@@H]4[C@@]5(C)C[C@@H](O)[C@H](O)[C@@](C)(CO)[C@@H]5[C@H](O)C[C@]43C)[C@H]12` [Madecassoside, madecassoside], the IC50 was 38.1 µM.
